Laboratory results: patent US20130096067A1, “DROSOPHILA TUMOR STEM CELL MODEL AND USES THEREOF” (priority 2011, published 2013)
“And” between values parts separate entries of the source, which are not always exact repeats. Identical values can stand only once. Like-named read-outs stand apart in the source and are kept apart here.

Test system: Raf-1^gof intestinal tumors
Conditions: for Log2 (fold) of luciferase activity relative to DMSO controls / Fold (luciferase activity relative to DMSO controls): ICCB compounds fed in vials to flies with one-day old Raf-1^gof tumors
[1] = screen of 480 ICCB compounds in vials, compounds fed to flies with one-day old Raf-1^gof tumors, assessed three days later, esg-Gal4 luciferase
[2] = screen of 480 ICCB compounds in vials, compounds fed to flies with one-day old Raf-1^gof tumors, assessed three days later, esg-Gal4 luciferase, averaged from multiple wells
[3] = assessed three days later, averaged from multiple wells
Note: test concentration or dose not given here.

Compound	Log2 (fold) (luciferase activity, log2 of the fold difference relative to DMSO controls) [1]	Fold (luciferase activity, fold difference relative to DMSO controls) [2]	Log2 (fold) of luciferase activity relative to DMSO controls (assessed three days later)	Fold (luciferase activity relative to DMSO controls) [3] [fold]	further results
CC(=O)N[C@@H](CSC/C=C(\C)CC/C=C(\C)CCC=C(C)C)C(=O)O	−0.664	0.631			
Nc1ccc2c3c(cccc13)C(=O)NC2=O	−0.433	0.741			
NC(=O)c1cccc(N)c1			−0.160	0.895	
CCOc1ccc(-c2nc3ccc(-c4nc5ccc(N6CCN(C)CC6)cc5[nH]4)cc3[nH]2)cc1	−0.592	0.663			
O=C(O)c1ccccc1Nc1ccccc1	−0.355	0.782			
NC(=Nc1ccccc1)NC(=O)c1nc(Cl)c(N)nc1N			0.088	1.063	
CC(N/C(=N\C#N)Nc1ccncc1)C(C)(C)C (stereo not shown)	−0.591	0.664			
COc1ccc(CCN(C)CCCC(C#N)(c2ccc(OC)c(OC)c2)C(C)C)cc1OC (stereo not shown)					Fold (luciferase activity, fold difference relative to DMSO controls) (in vivo): 0.838; Log2 (fold) (luciferase activity, log2 of the fold difference relative to DMSO controls) (in vivo): −0.255
CCCCC(C)(O)C/C=C/[C@H]1[C@H](O)CC(=O)[C@@H]1CCCCCCC(=O)O (mixture of isomers) [MISOPROSTOL, FREE ACID]			−0.137	0.909	
CCCCCCCCCCCCCCC[C@H](O)[C@@H](N)CO (racemic) [DL-DIHYDROSPHINGOSINE]			0.076	1.054	
CCCCCCCCCC(=O)N[C@H](CN1CCOCC1)[C@H](O)c1ccccc1 (racemic) [DL-PDMP]			0.078	1.056	
CCCCCCCCCCCCCCCC(=O)N[C@H](CN1CCOCC1)[C@H](O)c1ccccc1 (racemic) [DL-PPMP]			0.108	1.078	
O=C(O)CCC/C=C\C[C@@H]1[C@@H](/C=C/[C@@H](O)COc2cccc(C(F)(F)F)c2)[C@H](O)C[C@@H]1O (racemic) [FLUPROSTENOL]			0.058	1.041	
COC1=CC(=O)O[C@@H](/C=C/c2ccccc2)C1 (racemic) [Kavain (+/−)]	−0.357	0.781			
CN(C)C[C@H](O)Cn1c2ccc(Br)cc2c2cc(Br)ccc21 (racemic) [Wiskostatin]	−0.646	0.639			
Clc1ccc(C2CC3CCC2N3)cn1 (racemic) [epibatidine (+/−)]	−0.457	0.729			
CCCCCCCCCC(=O)OCC(CO)OC(=O)CCCCCCCCC (stereo not shown) [1,2-DIDECANOYL-GLYCEROL (10:0)]			0.310	1.240	
CCCCCCCC(=O)OC[C@H](CO)OC(=O)CCCCCCC [1,2-DIOCTANOYL-SN-GLYCEROL]			−0.080	0.946	
CCCCCCCC/C=C\CCCCCCCC(=O)OCC(CO)OC(=O)CCCCCCC/C=C\CCCCCCCC (stereo not shown) [1,2-DIOLEOYL-GLYCEROL (18:1)]			0.443	1.359	
C=C1/C(=C\C=C2/CCC[C@]3(C)[C@@H]([C@H](C)CCCC(C)(C)O)CC[C@@H]23)C[C@@H](O)C[C@@H]1O [1,25-DIHYDROXYVITAMIN D3]			0.677	1.599	
CCCCC/C=C\C/C=C\C/C=C\C/C=C\CCCC(=O)OC(CO)COCCCCCCCCCCCCCCCC (stereo not shown) [1-HEXADECYL-2-ARACHIDONOYL-GLYCEROL]	−0.379	0.769			

Compound	Log2 (fold) (luciferase activity, log2 of the fold difference relative to DMSO controls) [1]	Fold (luciferase activity, fold difference relative to DMSO controls) [2]	Log2 (fold) of luciferase activity relative to DMSO controls (assessed three days later)	Fold (luciferase activity relative to DMSO controls) [3] [fold]	further results
CCCCCCCCCCCCCCCCOCC(COP(=O)([O-])OCC[N+](C)(C)C)OC (stereo not shown) [1-HEXADECYL-2-METHYLGLYCERO-3 PC]			0.060	1.042	
CCCCCCCCCCCCCCCCOCC(CO)OC(C)=O (stereo not shown) [1-HEXADECYL-2-O-ACETYL-GLYCEROL]			0.518	1.432	
CCCCCCCCCCCCCCCCOCC(CO)OC (stereo not shown) [1-HEXADECYL-2-O-METHYL-GLYCEROL]	−0.219	0.859			
CCCCCCCCCCCCCCCCCCOCC(COP(=O)([O-])OCC[N+](C)(C)C)OC (stereo not shown) [1-OCTADECYL-2-METHYLGLYCERO-3 PC]	−0.538	0.689			
CCCCCCCC/C=C\CCCCCCCC(=O)OCC(CO)OC(C)=O (stereo not shown) [1-OLEOYL-2-ACETYL-GLYCEROL]	−0.727 and −0.716	0.604 and 0.609			
CCCCC/C=C\C/C=C\C/C=C\C/C=C\CCCC(=O)O[C@@H](CO)COC(=O)CCCCCCCCCCCCCCCCC [1-STEAROYL-2-ARACHIDONOYL-GLYCEROL]	−0.532	0.692			
CCCCC/C=C\C/C=C\CCCCCCCC(=O)OC(CO)COC(=O)CCCCCCCCCCCCCCCCC (stereo not shown) [1-STEAROYL-2-LINOLEOYL-GLYCEROL]	−0.456	0.729			
CC(C)(C)c1cc(O)c(C(C)(C)C)cc1O [2,5-ditertbutylhydroquinone]	−0.293	0.816			
CCCCC/C=C\C/C=C\C/C=C\C/C=C\CCCC(=O)OC(CO)CO [2-ARACHIDONOYLGLYCEROL]			0.119	1.086	
CCCCCCCCCCCCCCC(F)C(=O)O (stereo not shown) [2-FLUOROPALMITIC ACID]			0.051	1.036	
CCCCCCCCCCCCC(O)C(=O)O (stereo not shown) [2-HYDROXYMYRISTIC ACID]			0.087	1.062	
CCCC[C@H]1C(=O)O[C@H](C)[C@H](NC(=O)c2cccc(NC=O)c2OC)C(=O)O[C@@H](C)[C@@H]1OC(=O)CC(C)C [2-methoxyantimycin A3]	−0.873	0.546			
O=c1oc(Cl)c(Cl)c2ccccc12 [3,4-dichloroisocoumarin]	−0.772	0.586			
CC1=C(/C=C/C(C)=C/C=C/C(C)=C/C(=O)Nc2ccc(O)cc2)C(C)(C)CCC1 [4-HYDROXYPHENYLRETINAMIDE]	−0.244	0.845			
CCCCCCCCCCOCCC(=O)O [4-OXATETRADECANOIC ACID]			0.004	1.003	
CCCCC/C=C\C/C=C\C/C=C\C=C\[C@@H](O)CCCC(=O)O [5(S)-HETE]	−0.343	0.788			
CCCCC/C=C\C/C=C\C/C=C\C=C\[C@H](CCCC(=O)O)OO [5(S)-HPETE]	−0.524	0.696			
CCCCCC=CCC=CCC=CCC1OC1CCCC(=O)O (stereo not shown) [5,6-EPOXYEICOSATRIENOIC ACID]			−0.164	0.892	
CCCCCCCCC#CCC#CCC#CCCCC(=O)O [5,8,11-EICOSATRIYNOIC ACID]			0.094	1.067	
CCCCCC(O)CCCC(=O)O (stereo not shown) [5-HYDROXYDECANOATE]	−0.357	0.781			
